In this data set the test system is dermal fibroblasts. Kind of data set: MTT cell viability and proliferation, dermal fibroblasts. It is filed as cell-based, human. The source says: A normal adult skin biopsy (6 mm) was obtained (n=1), with informed consent, from an individual attending the Oral Surgery Clinic, School of Dentistry, Wales College of Medicine, Cardiff. Following the application of a local anaesthetic, the dermal biopsy was collected and adult dermal fibroblast cultures established by single cell suspension technique, following enzymic degradation of the specimen. This technique has previously been reliably used to establish viable primary cultures of both oral and dermal fibroblasts in vitro (Cook et al, 2000; Stephens et al, 2001; 2003). Dermal fibroblasts were cultured in Fibroblast-Serum Containing Medium, containing Dulbecco's Modified Eagle's Medium (DMEM), supplemented with L-glutamine (2 mM), antibiotics (100 U/ml penicillin G sodium, […] streptomycin sulphate and 0.25 μg/ml amphotericin B) and 10% fetal calf serum (all purchased from Invitrogen Ltd., Paisley, U.K.). Dermal fibroblast cultures were maintained at 37° C., in a 5% CO2/95% air atmosphere, with the culture medium being changed every 2-3 days. Dermal fibroblasts were used between passage 7-17, for all experiments.
Prior to use, the PEP005/DMSO stock solution was removed from 4° C. storage and warmed to room temperature. The required volumes of PEP005/DMSO were aliquoted into a poly-propylene vessel and the PEP005/DMSO diluted to the required concentration (typically 0.01 μg/ml, 0.1 μg/ml, 1 μg/ml, 10 μg/ml and […]) in Fibroblast-Serum Containing Medium (for dermal fibroblast cultures) or serum-free, EpiLife® Medium (for epidermal keratinocyte cultures), with fresh PEP005/culture medium solutions being prepared daily, at the various concentrations above, due to solution stability. Prior to discarding PEP005/culture medium solutions, at least two volumes of 0.1% sodium hydroxide (Sigma Chemical Co.), in 95% ethanol/5% methanol (both from Fisher Scientific, Leicestershire, U.K.), was added to each solution, to decontaminate.
The MTT [3-(4,5-dimethyl-2-thiazolyl)-2,5-diphenyltetrazolium bromide] dye-reduction assay was employed for the assessment of dermal fibroblast and epidermal keratinocyte cell viability and proliferation, according to Cook et al (2000). Following trypzinisation, dermal fibroblast or epidermal keratinocyte were seeded in 96-well microtitre plates (VWR International Ltd., Leicestershire, U.K.), at a cell density of 2.5×10^3 cell/well and 5×10^3 cell/well, respectively. Following cell seeding for 24 h and 48 h, respectively, the dermal fibroblast and epidermal keratinocyte culture medium were replaced with culture medium (100 μl/well), containing 0, 0.01 μg/ml, 0.1 μg/ml, 1 μg/ml, 10 μg/ml or 100 μg/ml PEP005 (six culture wells per PEP005 concentration). […]

SMILES strings stand for the structures.

For `C/C=C(/C)C(=O)O[C@H]1C(C)=C[C@]23C(=O)[C@@H](C=C(CO)[C@@H](O)[C@]12O)[C@H]1[C@@H](C[C@H]3C)C1(C)C` [PEP005, ingenol-3-angelate], the “dermal fibroblast cell viability/proliferation (MTT)” value runs as follows: (0.01 μg/ml PEP005, day 7) “appeared to stimulate cell viability/proliferation”; (0.1 μg/ml PEP005, day 7) “appeared to stimulate cell viability/proliferation”; (10 μg/ml PEP005, days 1, 3 and 5) “stimulatory effect”; (100 μg/ml PEP005, compared to untreated fibroblast controls) “cytotoxic effect”.

The values are drawn from US20090215884A1, “METHOD FOR WOUND HEALING” (priority 2005, published 2009).
